Source: US20200055044A1, “METHODS AND SYSTEMS FOR MICRO PLATELET FUNCTION TESTING USING AN INTEGRATED MINIATURIZED PLATELET FUNCTION ANALYZER” (Atantares Corp., priority 2016, published 2020)

Test system: platelets in fresh anticoagulated human blood
Assay: impedance-based micro platelet function test with microfabricated 3D electrodes in a microfluidic channel
Assay type: cell-based
Conditions: 100 μM ADP; human blood with Calcium Chloride and 10 μM PPACK; flow rate 25 μL/min; six frequencies 20 Hz to 2 MHz; logged for 2000 s; FIG. 16
Excerpt: Although not shown explicitly, electrodes of different heights (125 μm, 250 μm), diameters (100 μm, 250 μm, 500 μm), and gaps in-between electrodes (500 μm, 1000 μm) were fabricated using the same process. Pairs of 3D electrodes where each electrode comprises a number of electrically connected metal-coated cylindrical cores arranged in a grid were also fabricated. […] Wires soldered to the patterned metal pads on the substrates were used to connect the 3D electrodes to an Agilent E4980A LCR meter. FIG. 16 show a set 1600 of experimental data using electrodes fabricated according to the process discussed above. 1 mL of fresh anticoagulated human blood, obtained within 4 hrs of use, was mixed with 65 μL of 100 mg/mL Calcium Chloride and 10 μM of D-Phenylalanyl-prolyl-arginyl chloromethyl ketone (PPACK). […] The impedance of the electrodes was continuously monitored and logged at six different frequencies (20 Hz, 200 Hz, 1 kHz, 15 kHz, 200 kHz, 2 MHz) using a custom MATLAB program running on a computer interfaced to the LCR meter. […] The peak impedance values reached or the areas under the impedance-time curves or other measures from these curves may be analyzed and interpreted as indications of platelet activity in response to the modifying reagent added (e.g. ADP). […]

For `Nc1ncnc2c1ncn2[C@@H]1O[C@H](COP(=O)(O)OP(=O)(O)O)[C@@H](O)[C@H]1O` [ADP, adenosine diphosphate], the “change in electrode impedance after addition of platelet activation reagent” value was “increase in electrode impedances at all frequencies”.
